The text below walks through data of patent US20240297323A1, “BIOBASED AQUEOUS ORGANIC-BASED ELECTROLYTE IN AQUEOUS ORGANIC REDOX FLOW BATTERY” (KEMIWATT, priority 2021, published 2024).

In brackets after ≈: the same amount, converted by molar mass. Like-named read-outs stand apart in the source and are kept apart here.

The conditions of series [1]: redox-active molecules used in negolytes in ARFBs; cited from earlier work.
Series [2] is described as follows: Electrochemical properties at diluted state (cyclic voltammetry, RDE linear sweep voltammetry). Format: physicochemical. To be noted: for k^0′O × 10^−2 apparent heterogeneous rate constant: Gileadi's equation, transfer coefficient 0.5; for E1/2 half-wave potential: LSV with RDE, 400 up to 1 000 RPM, pH 14; for DO × 10^−6 diffusion coefficient: Randles-Sevcik, scan rates 10 mV/s up to 20 V/s; for Peak-to-peak separation ΔEp at pH 14: pH 14 (KOH 1 M), 5.10^−3 M, scan rate 100 mV·s^−1, third cycle. As to the method:
Cyclic voltammetry experiments were performed at a 100 mV/s scan rate for compounds A, B and B-M3CH in a solution at pH 14 (KOH 1 M).
The electrochemical experiments were conducted on an electrochemical working station (BioLogic Science Instruments VSP) at 25° C. using a three-electrodes electrochemical cell, where a Pt wire was employed at the counter electrode (CE), an Ag/AgCl/KCl saturated electrode immerged in a 1 M KOH solution protected from the cell by a porous frit glass served as the reference electrode (RE) and a rotating disc electrode (RDE) mounted with a glassy carbon (GC, 7.069 mm^2) disk was used as the working electrode (WE), respectively. The potential was reported relative to the normal hydrogen electrode (NHE), which was converted from the Ag/AgCl reference electrode (0.230 V versus NHE). The ohmic drop between the WE and RE is determined by current interrupt experiments and leads to a value close to 0.7069 Ω·cm^2. All cyclic voltammetry experiments were conducted by alleviating most of this resistance (85%) using the potentiostat manual ohmic drop compensation. Before each electrochemical measurement, the GC disk electrode was polished using SiC P4000 foil.
Each recorded cyclic voltammetry of the reduction and the oxidation process of a compound at a given scan rate is analyzed by measuring ip,a=anodic peak current; ip,c=cathodic peak current; v=scan rate; Ep,a=anodic peak potential; Ep,c=cathodic peak potential; ΔEp=Ep,a−Ep,c; the apparent standard redox potential E^0′=[…].
Linear sweep voltammetry (LSV) using the RDE at various rotation speed (400 up to 1 000 RPM) were performed to determine the averaged half-wave potential E1/2.
The oxidation (DO) and the reduction (DR) diffusion coefficients were calculated using Randles-Sevcik (RS) equation ip=0.4463.n^3/2.F^3/2.A.C.v^1/2.D^1/2.R^−1/2.T^−1/2=Cte.v^1/2.D^1/2, n=number of electrons exchanged during the redox process; F=faradaic number=96485 C·mol^−1; A=electrode active surface; C=redox active molecule concentration; R=gas constant=8.314 J·K^−1·mol^−1; T=bulk temperature=299 K. The experiments are conducted by cyclic voltammetry at various scan rates ranging from 10 mV/s up to 20 V/s.
A graphic of |ip,a| and |ip,c|=f(Cte.v^1/2) is plotted, if the redox process is reversible and diffusion controlled, the peak current should be proportional to the square root of the scan rate. The diffusion coefficients (oxidation and reduction) are then calculated by taking the square of the regression lines slopes. Diffusion coefficients (oxidation and reduction processes) are evaluated by plotting the peak current versus a constant multiplied by the square root of the scan rate. The plots regression line gives a straight line with perfect correlation coefficient (100%) confirming that the redox process is reversible and diffusion controlled. The square of each slope gives the associated coefficient diffusion in cm^2·s^−1.
The apparent heterogeneous rate constant during reduction (k^0′O) process was calculated using Gileadi's equation (C. Russel, W. Jaenicke, Electrochimica Acta, Vol 27, No. 12, 1745-1750, 1982) log k^0′=−0.48.α+0.52+log[(n.F.α.vc.D)/(2.303.R.T)]^1/2; vc is the critical scan rate, it is calculated by plotting the peak potentials versus the logarithm of the scan rates, and is more precise when a very wide range of scan rates is used, which is the case here (0.010 up to 20 V·s^−1), it is determined at the x-axis of the point of intersection of the regression lines drawn at low and high scan rates; a is the transfer coefficient that is supposed to be close to 0.5 for all presented compounds.
Peak-to-peak separation ΔEp values were determined from the third cycle of each cyclic voltammogram and are gathered in the following table 2.
The standard redox process reversibility evaluation is performed in diluted state, at 5 mM of concentration, at pH 14 buffered with 1 M of KOH. […]

Series [3] in a line: Water solubility by shake-flask method in alkaline aqueous solution. Format: physicochemical. To be noted: for solubility: aqueous buffer, thermodynamic from solid. The procedure: The solubility of the compounds was evaluated in aqueous solution at various pH by shake-flask method. An aqueous solution (containing either KOH 1 M, NaOH 1 M, or a mixture of KOH 0.5 M and NaOH 0.5 M) is added over 100 mg of compound by 20 μL portions until complete solubilization. We obtain an approximate range of solubility values calculated as following:
Smax˜(m/M)/V; m=mass of evaluated compound(g);M=molar mass of evaluated compound(g·mol^−1);V=added volume(L).

Series [4] in a line: Post-cycling analyses of the negolyte (cyclic voltammetry and 1H NMR before and after cycling). Format: physicochemical. As to conditions: for chemical stability in the application: conclusion from cycling and post-cycling analyses; for degradation during the cycling test (1H NMR in D2O before/after): negolyte after cycling. The procedure: FIG. 3: Cyclic voltammetry (3rd cycle) of the negolyte (black line) before the cycling test and (grey line) after cycling test, recorded at a scan rate of 100 mV·s^−1.
FIG. 4: ^1H NMR spectra of the negolyte, recorded in D2O between 0 and 10 ppm, (black line) before and (grey line) after the cycling test.
A preliminary electrochemical test was performed on the negolyte before and after the cycling test (FIG. 3).
Further analyses were performed using ^1H NMR spectroscopy, see FIG. 4.
A preliminary electrochemical test was performed on the negolyte before and after thousands of cycles and a few months of cycling test (FIG. 7).
Further analyses were performed using ^1H NMR spectroscopy, see FIG. 8.
A preliminary electrochemical test was performed on the negolyte before and after the cycling test (FIG. 10) which lasted for more than 1000 cycles, or 25 days of constant cycling.
Further analyses were performed using ^1H NMR spectroscopy, see FIG. 11.

[5] abbreviates: aqueous KOH 1 M solution, aqueous KOH 1 M, shake-flask, approximate, read-out: solubility estimated, KOH (1M).
[6] abbreviates: aqueous NaOH 1 M solution, aqueous NaOH 1 M, shake-flask, approximate, read-out: solubility estimated, NaOH (1M).
The mark [7] stands for this setting: aqueous alkaline solution, aqueous alkaline environment, read-out: solubility in aqueous alkaline environment.
The mark [8] stands for this setting: aqueous mixture of KOH 0.5 M and NaOH 0.5 M, mixture of KOH 0.5 M and NaOH 0.5 M, shake-flask, approximate, read-out: solubility estimated, KOH 0.5M + NaOH 0.5M.

With `O=C1c2ccc(S(=O)(=O)O)cc2C(=O)c2cc(S(=O)(=O)O)ccc21` [AQ-2,7-DS], in series [1], the “DO × 10^−6” value was 3.8 × 10^−6 cm^2/s and the “k^0′O × 10^−2” value is listed as 0.72 × 10^−2 cm/s.

`C[N+](C)(C)CCC[n+]1ccc(-c2cc[n+](CCC[N+](C)(C)C)cc2)cc1.[Cl-].[Cl-].[Cl-].[Cl-]` [BTMAP-Vi]: in series [1], the “DO × 10^−6” value is recorded as 3.3 × 10^−6 cm^2/s and the “k^0′O × 10^−2” value is 2.2 × 10^−2 cm/s.

`Cc1c(C(=O)O)c(O)cc2c1C(=O)c1c(O)cccc1C2=O` [Compound A]: in series [2], the “k^0′O × 10^−2 apparent heterogeneous rate constant” value is listed as 0.78 × 10^−2 cm/s, the E1/2 half-wave potential is listed as −0.59 V vs NHE, the “DO × 10^−6 diffusion coefficient” value is recorded as 3.65 × 10^−6 cm^2/s and the “Peak-to-peak separation ΔEp at pH 14” value was 56 mV. Besides, the solubility in series [3] (setting [5]) is 480 mM (≈ 143 mg/mL). The solubility in series [3] (setting [6]) is 320 mM (≈ 95.4 mg/mL). Moreover, the solubility in series [3] (setting [7]) was > 300 mM. In addition, the solubility in series [3] (setting [8]) was 490 mM. The “oxidation not originally present in the negolyte” value in series [4] (after cycling) is −0.57 V vs Ag/AgCl. In series [4], the “chemical stability in the application” value was “low chemical stability” and the “degradation during the cycling test (1H NMR in D2O before/after)” value is on record as “degraded into multiple compounds”.

Take `Cc1cc(O)cc2c1C(=O)c1c(O)cccc1C2=O` [Compound B, 3,8-dihydroxy-1-methylanthracene-9,10-dione]: in series [2], the “k^0′O × 10^−2 apparent heterogeneous rate constant” value was 0.80 × 10^−2 cm/s, the E1/2 half-wave potential is on record as −0.57 V vs NHE, the “DO × 10^−6 diffusion coefficient” value is 2.99 × 10^−6 cm^2/s and the “Peak-to-peak separation ΔEp at pH 14” value is on record as 40 mV. For the same molecule, the solubility in series [3] (setting [5]) was 580 mM (≈ 147 mg/mL). Besides, in series [3] (setting [6]), the solubility is 500 mM (≈ 127 mg/mL). For the same molecule, the solubility in series [3] (setting [7]) was > 300 mM. Besides, the solubility in series [3] (setting [8]) was 630 mM. Further, the “decrease of redox signature current intensity after cycling” value in series [4] (after thousands of cycles and a few months, ascribed to osmosis dilution) is given as 30-35%. Also, the “degradation during the cycling test (1H NMR in D2O before/after)” value in series [4] is “does not undergo any degradation”.

Consider `Cc1cc(OCCCC(=O)O)cc2c1C(=O)c1c(O)cccc1C2=O` [Compound B-M3CH, 4-((5-hydroxy-4-methyl-9,10-dioxo-9,10-dihydroanthracen-2-yl)oxy)butanoic acid], for which, in series [2], the “k^0′O × 10^−2 apparent heterogeneous rate constant” value is on record as 2.47 × 10^−2 cm/s, the E1/2 half-wave potential was −0.49 V vs NHE, the “DO × 10^−6 diffusion coefficient” value is 4.58 × 10^−6 cm^2/s and the “Peak-to-peak separation ΔEp at pH 14” value is 30 mV. Further, in series [3] (aqueous KOH 1 M or NaOH 1 M solution, KOH 1 M or NaOH 1 M, read-out: solubility in ionic environment containing one type of alkaline cation), the solubility is ~150 mM (≈ 51 mg/mL). Also, the solubility in series [3] (setting [5]) is 150 mM (≈ 51 mg/mL). Besides, the solubility in series [3] (setting [6]) was 150 mM (≈ 51 mg/mL). In addition, in series [3] (setting [8]), the solubility is ~430 mM. Also, the “solubility estimated, KOH 0.5M + NaOH 0.5M” value in series [3] (mixture of KOH 0.5 M and NaOH 0.5 M, shake-flask, approximate) is 430 mM. The “increase of redox signature current intensity after cycling” value in series [4] (after more than 1000 cycles, 25 days, ascribed to osmosis concentration) is “about 30%”. In series [4], the “chemical stability in the application” value is “increased its stability” and the “degradation during the cycling test (1H NMR in D2O before/after)” value is reported as “does not undergo any degradation”.

As to `O=C(O)CCCOc1ccc2c(c1)C(=O)c1ccc(OCCCC(=O)O)cc1C2=O` [DBEAQ], in series [1], the “DO × 10^−6” value is 1.58 × 10^−6 cm^2/s and the “k^0′O × 10^−2” value is 0.70 × 10^−2 cm/s.

Turning to `O=C1c2ccc(O)cc2C(=O)c2ccc(O)cc21` [DHAQ], in series [1], the “DO × 10^−6” value is on record as 4.8 × 10^−6 cm^2/s and the “k^0′O × 10^−2” value is given as 0.70 × 10^−2 cm/s.

With `O=C1C=C(O)C(=O)C=C1O` [DHBQ], in series [1], the “DO × 10^−6” value is listed as 3.66 × 10^−6 cm^2/s and the “k^0′O × 10^−2” value is recorded as 0.21 × 10^−2 cm/s.

For the molecule `O=C1c2ccc(OCCCP(=O)(O)O)cc2C(=O)c2ccc(OCCCP(=O)(O)O)cc21` [DPPEAQ], the “DO × 10^−6” value in series [1] is on record as 1.37 × 10^−6 cm^2/s.

As to `Cc1cc2nc3c(=O)[nH]c(=O)nc-3n(C[C@H](O)[C@H](O)[C@H](O)COP(=O)([O-])O)c2cc1C.[Na+]` [Flavine FMN-Na], in series [1], the “DO × 10^−6” value is 1.3 × 10^−6 cm^2/s and the “k^0′O × 10^−2” value was 0.53 × 10^−2 cm/s.

For orientation: solubility means the dissolved amount per volume that the medium holds.
